From US20210228511A1, “NEURONAL AGONISTS AND ISOTONIC OR HYPERTONIC SALINE FOR TREATING RESPIRATORY DISEASES” (University of Saskatchewan, priority 2020, published 2021)
Where two headings read alike, the source gives them in different places.

Key:
[1] = tested on: live wild-type swine; assay: ASL layer height by synchrotron phase contrast imaging, live wild-type swine; details: added alone to HTS, WT swine in vivo, lesser extent than with capsaicin, FIG. 11
[2] = tested on: airway submucosal glands; assay: Fluid secretion assay of airway submucosal glands (droplets under oil); details: WT swine, FIG. 12
Experimental: To confirm that both exemplary neuronal agonists capsaicin and menthol stimulate active fluid secretion by airway submucosal glands in WT swine, the effect of exemplary neuronal agonists menthol and capsaicin was on fluid secretion rate was measured using the secretion assay as described elsewhere^21. The mucosal layer from trachea or primary bronchus, with underlying glands, was dissected from the cartilage. A piece of tissue of about 1 cm^2 was pinned mucosal side up and mounted in a 35-mm-diameter plastic Petri dish lined with Sylgard (Dow Corning Corp). The serosal side was immersed in a bathing solution ( 1 ml volume), and the mucosa was in air. Before experimentation, the mucosal surface was gently cleaned and blotted dry with cotton swabs and further dried with a stream of air, after water-saturated mineral oil was placed on the surface.

[3] = tested on: isolated swine trachea; assay: ASL layer height by synchrotron phase contrast imaging, isolated wild-type swine trachea (ex vivo)
[4] = tested on: ex vivo swine trachea preparations; assay: Mucociliary clearance assay, tantalum disk movement on excised swine trachea
[5] = ex vivo wild-type trachea, HTS 7% w/v NaCl, 18 min

In the case of `CC1CCC(C(C)C)C(O)C1` (stereo not shown) [menthol, 5-Methyl-2-(propan-2-yl)cyclohexan-1-ol], the duration of treatment [1] is reported as “increase the intensity and duration of treatment”, the intensity of treatment [1] is reported as “increase the intensity and duration of treatment” and the “ASL secretion by the submucosal glands” value [2] is reported as “triggers significant ASL secretion”.
`N=C(N)NC(=O)c1nc(Cl)c(N)nc1N` [amiloride] was tested, and the “effect on HTS-triggered ASL layer height increase” value [3, 5] was “did not affect HTS treatment”.
For `COc1cc(CNC(=O)CCCC/C=C/C(C)C)ccc1O` [capsaicin, (6E)-N-[(4-Hydroxy-3-methoxyphenyl)methyl]-8-methylnon-6-enamide], the “ASL secretion by the submucosal glands” value [2] was “triggers significant ASL secretion”, the “HTS-triggered increase in mucociliary clearance” value ([4]; WT swine airways, added to HTS, FIG. 13) was “augmented” and the “ITS-triggered increase in mucociliary clearance” value ([4]; WT swine airways, added to ITS, FIG. 13) was “augmented”.
With `O=C(O)c1ccc(/C=C2\SC(=S)N(c3cccc(C(F)(F)F)c3)C2=O)cc1` [CFTRinh172] the “effect on HTS-triggered ASL secretion, time course” value ([3]; wild-type swine trachea preparations ex vivo, FIG. 8) was “decreases the effect of HTS on ASL secretion”.
For `CN1[C@@H]2CC[C@H]1C[C@@H](OC(=O)C(CO)c1ccccc1)C2` (stereo partly shown) [atropine], the “effect on ASL layer height in ITS-treated preparations” value [3] was “had no effect”, the “effect on HTS-triggered ASL layer height increase” value [3] was “reduced HTS-triggered ASL secretion” and the “effect on ITS-treated preparations incubated with CFTRinh172” value [3] was “had no effect”. The “effect on response to HTS treatment in preparations incubated with CFTRinh172” value [3] was “reduced the response to HTS treatment”.
`C=C(C)[C@@H]1CC[C@@H](C)C[C@H]1O` [(−)-isopulegol, (1R,2S,5R)-2-Isopropenyl-5-methylcyclohexanol] was tested, and the “duration of HTS-triggered mucociliary clearance” value ([4]; wild-type swine ex vivo, added to HTS, measured at 0, 90 and 150 min, FIG. 15) was “extended the duration of HTS-triggered mucociliary clearance”.
For `Ic1ccccc1CN[C@@H]1C2CCN(CC2)[C@@H]1C(c1ccccc1)c1ccccc1` [L-703606], the “effect on HTS-triggered ASL layer height increase” value [3, 5] was “significantly reduced”, the “effect on ASL layer height in ITS-treated preparations” value ([3]; ex vivo wild-type trachea, ITS 0.9% w/v NaCl, 18 min) was “had no effect” and the “effect on response to HTS treatment in preparations incubated with CFTRinh172” value ([3]; ex vivo, CFTRinh172 100 μM (model of airways without CFTR function), 18 min) was “unaffected”.
